Laboratory results reported in PubChem BioAssay AID1549 (Sanford-Burnham Center for Chemical Genomics, 2009).
The source made the active and inactive calls. How the calls were made is not given here.

Each compound was assayed against Influenza A virus M2 proton channel (A/TW/4845/1999 H1N1) (assay: NMR binding screen, influenza A virus M2 proton channel, Kd (AID 1549)). Conditions: M2 protein.

| SMILES | Kd |
| --- | --- |
| NS(=O)(=O)c1ccc(N=C2NC(=O)CS2)cc1 | > 4 mM (inactive) |
| COc1ccc2nc(NC(=O)c3cnccn3)sc2c1 | > 4 mM (inactive) |
| Nc1cccc(C(=O)c2ccccc2)c1 | > 4 mM (inactive) |
| COc1cc(C)c(S(=O)(=O)N2CCN(C)CC2)cc1C | > 4 mM (inactive) |
| COc1c(C(=O)N2CCCC2)ccc2ccccc12 | > 4 mM (inactive) |
| Fc1ccc2onc(C3CCNCC3)c2c1 | > 4 mM (inactive) |
| O=c1c(-c2ccc(O)cc2)coc2cc(O)ccc12 | > 4 mM (inactive) |
| O=C(Nc1ccccc1)C(=O)NC1CC1 | > 4 mM (inactive) |
| O=C(NCN1CCOCC1)c1cccnc1 | > 4 mM (inactive) |
| CC1(O)CC2C(CC1O)C2(C)C (stereo not drawn) | > 4 mM (inactive) |
| O=C(O)CCCc1nc2ccccc2s1 | > 4 mM (inactive) |
| Nc1cccc(S(=O)(=O)N2CCOCC2)c1 | > 4 mM (inactive) |
| COC(=O)[C@@H]1OC(=O)C2OC23[C@@]1(C)CCC1[C@]2(C)C(C[C@@H](O)[C@]13C)C(C)(C)[C@H](OC(C)=O)C[C@@H]2OC(C)=O (stereo partly drawn) | > 4 mM (inactive) |
| Cn1cnnc1Sc1ncnc(N)c1[N+](=O)[O-] | > 4 mM (inactive) |
| COC(=O)c1scc(C)c1N | > 4 mM (inactive) |
| CS(=O)(=O)NC1CCN(Cc2ccccc2)CC1 | > 4 mM (inactive) |
| COc1ccc2c(c1OC)OC[C@@H](c1ccc(OC)c(OC)c1OC)C2 | > 4 mM (inactive) |
| COc1ccc(Cc2nccc3cc(OC)c(OC)cc23)cc1OC | > 4 mM (inactive) |
| Cn1c(CN)nc2ccccc21 | > 4 mM (inactive) |
| CNC(=O)N1CCN(C(=O)NC)CC1 | > 4 mM (inactive) |
| CC(C)=NNC(=O)C(=O)Nc1ccc(F)cc1 | > 4 mM (inactive) |
| c1ccc(Cc2nnc3sc(-c4ccncc4)nn23)cc1 | > 4 mM (inactive) |
| CC1(C)C=CC(=O)[C@@]2(C)C1CC(=O)[C@]1(C)C2CC[C@@]2(C)[C@H](c3ccoc3)OC(=O)C3OC321 (stereo partly drawn) | > 4 mM (inactive) |
| CN1C2CC3C[C@H]1C(O3)C2O (stereo partly drawn) | > 4 mM (inactive) |
| COc1ccc2[nH]c(O)c(NC(C)=O)c2c1 | > 4 mM (inactive) |

| SMILES | Kd |
| --- | --- |
| O=C(O)c1ccc2nccnc2c1 | > 4 mM (inactive) |
| CC(C)(C)NC(=O)CN1C(=O)c2ccccc2S1(=O)=O | > 4 mM (inactive) |
| O=c1ccnc(Nc2ccccc2O)[nH]1 | > 4 mM (inactive) |
| O=C(Nc1ccc2c(c1)OCO2)c1c(F)cccc1F | > 4 mM (inactive) |
| O=C(C1CCC(C(=O)N2CCCC2)CC1)N1CCCC1 (stereo not drawn) | > 4 mM (inactive) |
| Cc1onc(-c2c(F)cccc2Cl)c1C(N)=O | > 4 mM (inactive) |
| CSCCNC(C)=O | > 4 mM (inactive) |
| NC(CC(=O)O)c1ccccc1 (stereo not drawn) | > 4 mM (inactive) |
| Cc1ccc(NC(=O)N2CCC(C(N)=O)CC2)cc1 | > 4 mM (inactive) |
| COC1C(O)C(O)C(O)[C@@H](O)C1O (stereo partly drawn) | > 4 mM (inactive) |
| O=c1c2ccccc2oc2ccc(O)cc12 | > 4 mM (inactive) |
| COc1cc2c3cc1Oc1cc(ccc1O)C[C@@H]1c4c(cc(OC)c(O)c4Oc4ccc(cc4)C[C@@H]3N(C)CC2)CC[N+]1(C)C | > 4 mM (inactive) |
| CCn1nnc2c(NCc3ccccn3)ncnc21 | > 4 mM (inactive) |
| C[C@@H]1O[C@@H](O[C@H]2CC[C@]3(C=O)C4CC[C@]5(C)[C@@H](C6=CC(=O)OC6)CC[C@]5(O)C4CC[C@]3(O)C2)[C@H](O)[C@H](O)[C@H]1O (stereo partly drawn) | > 4 mM (inactive) |
| CCn1c(C)c(C(C)=O)c(N2CCN(C)CC2)nc1=S | > 4 mM (inactive) |
| c1ccc(-n2ncc3c(NCc4ccco4)ncnc32)cc1 | > 4 mM (inactive) |
| Cn1c(=O)c2c(ncn2CCNC2=NCCC2)n(C)c1=O | > 4 mM (inactive) |
| C[n+]1cccc(C(=O)[O-])c1 | > 4 mM (inactive) |
| C[C@@H]1CC[C@@]23CCC4(C)[C@@](C=CC5[C@@]6(C)CCC(=O)C(C)(C)C6CC[C@]54C)(OC2=O)C3[C@H]1C (stereo partly drawn) | > 4 mM (inactive) |
| CCC1C(=O)OCC1Cc1cncn1C (stereo not drawn) | > 4 mM (inactive) |
| O=C(c1cc(Cl)cc(Cl)c1)N1CCOCC1 | > 4 mM (inactive) |
| COc1ccc(N=C2NC(=O)CS2)cc1 | > 4 mM (inactive) |
| O=C(O)C1COc2ccccc2C1 (stereo not drawn) | > 4 mM (inactive) |
| CC1=CC(=O)CC(C)(C)C1(O)/C=C/C(C)=C\C(=O)O (stereo not drawn) | > 4 mM (inactive) |
| O=C(O)c1cccnc1N1CCCC1 | > 4 mM (inactive) |

| SMILES | Kd |
| --- | --- |
| O=S(=O)(c1cccc(Cl)c1)N1CCCC1 | > 4 mM (inactive) |
| S=C(NC1CC1)NN1CCOCC1 | > 4 mM (inactive) |
| COc1ccc2c(c1)OCc1c-2oc2cc(OC)ccc12 | > 4 mM (inactive) |
| O=C(NCCO)c1cc2ccccc2cc1O | > 4 mM (inactive) |
| Cc1cc(Oc2ccccc2)nc(N)n1 | > 4 mM (inactive) |
| Cc1cc(=O)oc2c1c(C)nn2CN1CCN(C)CC1 | > 4 mM (inactive) |
| C=CCc1ccc(OC(=O)c2ccccc2)c(OC)c1 | > 4 mM (inactive) |
| C=C(C)C1CC=C(CO)CC1 (stereo not drawn) | > 4 mM (inactive) |
| COC(=O)c1ccc(Cl)c(NC(C)=O)c1 | > 4 mM (inactive) |
| O=C(O)c1ccc2ncccc2c1 | > 4 mM (inactive) |
| COc1ccc([C@H]2COc3c(ccc(O)c3OC)C2)c(OC)c1O | > 4 mM (inactive) |
| Fc1ccc(NC2=NCCS2)cc1Cl | > 4 mM (inactive) |
| O=C(O)C1COc2ccccc2O1 (stereo not drawn) | > 4 mM (inactive) |
| CNC(=O)COc1cccc2c1CCNC2=O | > 4 mM (inactive) |
| Cc1occc1C(=O)Nc1cc(C(C)(C)C)on1 | > 4 mM (inactive) |
| Cc1cc(C)n2nc(C(=O)NCc3ccco3)nc2n1 | > 4 mM (inactive) |
| C#CCCCCCCCCCCCC(O)CC(O)COC(C)=O (stereo not drawn) | > 4 mM (inactive) |
| NCc1cccc2c1OCCO2 | > 4 mM (inactive) |
| COCc1nn2c(N)c(C#N)cnc2c1-c1ccccc1 | > 4 mM (inactive) |
| CC(=O)Nc1ccc(S(=O)(=O)N2CCN=C2C)cc1 | > 4 mM (inactive) |
| NCc1ccc2sccc2c1 | > 4 mM (inactive) |
| CCc1cc2c(SCC(=O)O)ncnc2s1 | > 4 mM (inactive) |
| Nc1ccc(Oc2ccccc2)nc1 | > 4 mM (inactive) |
| CN1CCC(N(C)Cc2cccnc2)CC1 | > 4 mM (inactive) |
| COc1cc(C(C)=O)cc(OC)c1O | > 4 mM (inactive) |

| SMILES | Kd |
| --- | --- |
| O=C(O)c1cccnc1-c1nc2ccccc2s1 | > 4 mM (inactive) |
| Cc1nc(NC(=O)c2cccnc2)ccc1Br | > 4 mM (inactive) |
| O=C(O)Cc1csc(-c2ccccc2)n1 | > 4 mM (inactive) |
| CNC[C@@H](O)c1ccc(O)c(O)c1 | > 4 mM (inactive) |
| CC(=O)NC12CC3CC(C)(C1)CC(NC(C)=O)(C3)C2 | > 4 mM (inactive) |
| Nc1ccc2[nH]ccc2c1 | > 4 mM (inactive) |
| Cc1cc(NC(=O)NCCCSc2nncn2C)no1 | > 4 mM (inactive) |
| N#Cc1cnc(N2CCCCC2)nc1N | > 4 mM (inactive) |
| OCCOc1ccc(C2=NCCO2)cc1 | > 4 mM (inactive) |
| O=c1cnnc(SCCc2ccccc2)[nH]1 | > 4 mM (inactive) |
| Cc1cccc(-n2c(N)cc(=O)[nH]c2=S)c1 | > 4 mM (inactive) |
| CCc1ccccc1OCc1nnc(N)s1 | > 4 mM (inactive) |
| CC1(C)CC23C(=O)CCC(O)C2(C)CCC13 (stereo not drawn) | > 4 mM (inactive) |
| Cc1oc(S(=O)(=O)N2CCCCC2)cc1C(=O)O | > 4 mM (inactive) |
| O=C(NN=C1CCCC1)c1ccncc1 | > 4 mM (inactive) |
| COC1=CC(=O)C(O)=C/C1=C\C=C\c1ccccc1 | > 4 mM (inactive) |
| O=C1c2ccccc2-c2ncnc3cccc1c23 | > 4 mM (inactive) |
| Cn1nc(C(=O)N2CCCC2)c2ccccc2c1=O | > 4 mM (inactive) |
| CN1CCn2c1nc(N1CCOCC1)nc2=O | > 4 mM (inactive) |
| COc1c2occc2c(OC)c2c(=O)cc(C)oc12 | > 4 mM (inactive) |
| COc1ccccc1C(=O)NC1CCN(C)CC1 | > 4 mM (inactive) |
| CC(=O)Nc1ccc2c(c1)CCC2=O | > 4 mM (inactive) |
| COc1ccc(/C=C/C(=O)O)cc1OC | > 4 mM (inactive) |
| CC1(C)CC(=O)c2cnn(-c3nc4ccccc4[nH]3)c2C1 | > 4 mM (inactive) |
| NCc1n[nH]c(=O)c2ccccc12 | > 4 mM (inactive) |

| SMILES | Kd |
| --- | --- |
| c1cncc(Nc2nc(-c3ccncc3)cs2)c1 | > 4 mM (inactive) |
| CC(C)CCCC(C)[C@H]1CCC2C3CC=C4CC(=O)CC[C@]4(C)C3CC[C@@]21C (stereo partly drawn) | > 4 mM (inactive) |
| C=C1CCC2C(CC2(C)C)C(=O)CCC1O (stereo not drawn) | > 4 mM (inactive) |
| O=c1c(O)c(-c2ccccc2)oc2cc(O)ccc12 | > 4 mM (inactive) |
| CNC(=S)Nc1cccc(C(=O)O)c1 | > 4 mM (inactive) |
| NC1=NC(=O)/C(=C\c2cccnc2)S1 | > 4 mM (inactive) |
| CCOC(=O)c1c(C)nc2ncccn12 | > 4 mM (inactive) |
| Cc1nn(C)c(C)c1C(=O)O | > 4 mM (inactive) |
| O=C(c1ccc2c(c1)OCO2)N1CCC2(CC1)OCCO2 | > 4 mM (inactive) |
| Cc1noc(C)c1C(=O)Nc1sc(C)c(C)c1C#N | > 4 mM (inactive) |
| CCN1CCC(NC2CCCCNC2=O)CC1 (stereo not drawn) | > 4 mM (inactive) |
| CCCCCCCCCCCC[C@H](C(=O)O)[C@@H](C)C(=O)O | > 4 mM (inactive) |
| O=C1CC(=O)N(c2ccccc2)c2ccccc21 | > 4 mM (inactive) |
| O=C(O)CSCC(=O)Nc1cccc(O)c1 | > 4 mM (inactive) |
| c1cncc(Cn2cccc2)c1 | > 4 mM (inactive) |
| Cc1cc(NC(=O)c2ocnc2C)no1 | > 4 mM (inactive) |
| NCc1ccc2c(c1)OCO2 | > 4 mM (inactive) |
| COc1ccc(C2(C)NC(=O)NC2=O)cc1 (stereo not drawn) | > 4 mM (inactive) |
| NC(=O)CS(=O)(=O)c1ccc(Cl)cc1 | > 4 mM (inactive) |
| CC(=O)Nc1ccccc1OCC(N)=O | > 4 mM (inactive) |
| CCOCC(=O)NCc1n[nH]c(=O)c2ccccc12 | > 4 mM (inactive) |
| CNC(=O)c1cccc(NC(=S)NC)c1 | > 4 mM (inactive) |
| COCc1cc(=O)oc2cc(O)c(Cl)cc12 | > 4 mM (inactive) |
